Test results as given in the kinase profiling compilation of Christmann-Franck et al. (2016).

Assays:
Assay in all cases: radiometric filter-binding kinase assay
PLK1 (human) = PLK1 (human) (UniProt P53350); conditions: compound 100.0 µM; ATP 5 µM
TTK (human) = TTK (human) (UniProt P33981); conditions: compound 100.0 µM; ATP 20 µM
PHKG1 (human) = PHKG1 (human) (UniProt Q16816); conditions: compound 100.0 µM; ATP 50 µM
MAP2K2 (human) = MAP2K2 (human) (UniProt P36507); conditions: compound 100.0 µM; ATP 5 µM
MAPK3 (human) = MAPK3 (human) (UniProt P27361); conditions: compound 100.0 µM; ATP 5 µM
CHEK1 (human) = CHEK1 (human) (UniProt O14757); conditions: compound 100.0 µM; ATP 20 µM
JAK2 JH1 JH2 (human) = JAK2 JH1 JH2 (human) (UniProt O60674); conditions: compound 100.0 µM; ATP 5 µM
IRAK4 (human) = IRAK4 (human) (UniProt Q9NWZ3); conditions: compound 100.0 µM; ATP 20 µM
MAPKAPK3 (human) = MAPKAPK3 (human) (UniProt Q16644); conditions: compound 100.0 µM; ATP 20 µM
[1] = system: AKT2 (human), P31751 [S474D]; conditions: compound 100.0 µM; ATP 50 µM
PIM1 (human) = PIM1 (human) (UniProt P11309); conditions: compound 100.0 µM; ATP 20 µM
PIM1 (human), sequence (P11309 whole entry, looked up): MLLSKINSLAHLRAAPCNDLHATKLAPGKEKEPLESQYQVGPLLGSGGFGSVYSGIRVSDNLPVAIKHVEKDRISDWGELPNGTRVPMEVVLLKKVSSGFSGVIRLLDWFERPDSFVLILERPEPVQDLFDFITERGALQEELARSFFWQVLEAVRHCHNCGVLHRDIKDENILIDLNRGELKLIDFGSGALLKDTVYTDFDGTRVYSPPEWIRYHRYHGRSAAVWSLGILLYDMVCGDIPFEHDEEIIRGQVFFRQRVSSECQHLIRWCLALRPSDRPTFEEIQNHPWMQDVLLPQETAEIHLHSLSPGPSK

MAPK13 (human) = MAPK13 (human) (UniProt O15264); conditions: compound 100.0 µM; ATP 5 µM
MAPK15 (human) = MAPK15 (human) (UniProt Q8TD08); conditions: compound 100.0 µM; ATP 5 µM
BRSK1 (human) = BRSK1 (human) (UniProt Q8TDC3); conditions: compound 100.0 µM; ATP 20 µM
CHEK2 (human) = CHEK2 (human) (UniProt O96017); conditions: compound 100.0 µM; ATP 20 µM
MARK4 (human) = MARK4 (human) (UniProt Q96L34); conditions: compound 100.0 µM; ATP 50 µM
DYRK2 (human) = DYRK2 (human) (UniProt Q92630); conditions: compound 100.0 µM; ATP 50 µM
AURKB (human) = AURKB (human) (UniProt Q96GD4); conditions: compound 100.0 µM; ATP 20 µM
AURKB (human), sequence (Q96GD4 whole entry, looked up): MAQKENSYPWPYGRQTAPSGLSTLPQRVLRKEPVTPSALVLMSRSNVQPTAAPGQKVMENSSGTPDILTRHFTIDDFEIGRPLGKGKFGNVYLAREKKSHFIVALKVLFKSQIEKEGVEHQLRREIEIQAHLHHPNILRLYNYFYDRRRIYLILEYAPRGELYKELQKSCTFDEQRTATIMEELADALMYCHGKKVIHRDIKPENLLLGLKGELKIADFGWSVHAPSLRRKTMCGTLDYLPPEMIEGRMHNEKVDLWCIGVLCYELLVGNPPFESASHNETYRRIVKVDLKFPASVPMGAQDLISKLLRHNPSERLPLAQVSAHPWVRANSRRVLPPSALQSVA

PAK7 (human) = PAK7 (human) (UniProt Q9P286); conditions: compound 100.0 µM; ATP 20 µM
PAK7 (human), sequence (Q9P286 whole entry, looked up): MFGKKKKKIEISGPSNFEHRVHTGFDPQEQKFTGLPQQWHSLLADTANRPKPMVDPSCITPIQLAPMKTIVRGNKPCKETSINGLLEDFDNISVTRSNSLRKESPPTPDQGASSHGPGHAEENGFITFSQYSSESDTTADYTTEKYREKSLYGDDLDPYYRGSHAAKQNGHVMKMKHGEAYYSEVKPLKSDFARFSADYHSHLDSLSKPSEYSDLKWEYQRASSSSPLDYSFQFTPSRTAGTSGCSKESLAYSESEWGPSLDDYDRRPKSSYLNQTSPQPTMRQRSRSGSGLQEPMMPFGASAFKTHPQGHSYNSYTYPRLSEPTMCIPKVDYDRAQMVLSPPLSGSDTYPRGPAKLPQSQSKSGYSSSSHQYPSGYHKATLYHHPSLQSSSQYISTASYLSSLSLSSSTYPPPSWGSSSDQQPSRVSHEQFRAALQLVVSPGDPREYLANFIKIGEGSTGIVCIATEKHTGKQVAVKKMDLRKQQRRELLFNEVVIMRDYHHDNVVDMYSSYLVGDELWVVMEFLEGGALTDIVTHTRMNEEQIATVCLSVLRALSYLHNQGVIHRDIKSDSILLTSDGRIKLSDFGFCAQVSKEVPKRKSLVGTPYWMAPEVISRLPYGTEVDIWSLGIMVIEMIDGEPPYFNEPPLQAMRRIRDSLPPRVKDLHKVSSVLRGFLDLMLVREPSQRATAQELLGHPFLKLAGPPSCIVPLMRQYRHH

GCK (human) = GCK (human) (UniProt Q12851); conditions: compound 100.0 µM; ATP 20 µM
FLT1 (human) = FLT1 (human) (UniProt P17948); conditions: compound 100.0 µM; ATP 20 µM
[2] = system: SGK1 (human), O00141 [S422D]; conditions: compound 100.0 µM; ATP 20 µM
PIM3 (human) = PIM3 (human) (UniProt Q86V86); conditions: compound 100.0 µM; ATP 20 µM
PDPK1 (human) = PDPK1 (human) (UniProt O15530); conditions: compound 100.0 µM
PDPK1 (human), sequence (O15530 whole entry, looked up): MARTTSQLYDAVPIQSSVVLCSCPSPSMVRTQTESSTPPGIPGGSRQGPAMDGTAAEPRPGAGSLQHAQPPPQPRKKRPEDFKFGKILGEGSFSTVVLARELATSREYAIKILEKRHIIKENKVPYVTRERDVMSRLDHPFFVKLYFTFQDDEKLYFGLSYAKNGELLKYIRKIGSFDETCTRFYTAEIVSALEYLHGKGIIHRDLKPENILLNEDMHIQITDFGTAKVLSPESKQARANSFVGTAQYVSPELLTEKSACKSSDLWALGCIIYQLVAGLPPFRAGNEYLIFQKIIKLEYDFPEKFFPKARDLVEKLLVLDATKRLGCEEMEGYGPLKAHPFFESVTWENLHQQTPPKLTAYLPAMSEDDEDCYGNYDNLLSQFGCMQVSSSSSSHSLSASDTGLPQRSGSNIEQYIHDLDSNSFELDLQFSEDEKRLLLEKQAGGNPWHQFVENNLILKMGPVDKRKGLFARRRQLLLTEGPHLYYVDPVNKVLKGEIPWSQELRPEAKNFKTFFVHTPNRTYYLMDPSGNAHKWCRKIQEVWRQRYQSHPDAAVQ

TBK1 (human) = TBK1 (human) (UniProt Q9UHD2); conditions: compound 100.0 µM; ATP 50 µM
STK16 (human) = STK16 (human) (UniProt O75716); conditions: compound 100.0 µM; ATP 50 µM
AURKA (human) = AURKA (human) (UniProt O14965); conditions: compound 100.0 µM; ATP 5 µM
AURKA (human), sequence (O14965 whole entry, looked up): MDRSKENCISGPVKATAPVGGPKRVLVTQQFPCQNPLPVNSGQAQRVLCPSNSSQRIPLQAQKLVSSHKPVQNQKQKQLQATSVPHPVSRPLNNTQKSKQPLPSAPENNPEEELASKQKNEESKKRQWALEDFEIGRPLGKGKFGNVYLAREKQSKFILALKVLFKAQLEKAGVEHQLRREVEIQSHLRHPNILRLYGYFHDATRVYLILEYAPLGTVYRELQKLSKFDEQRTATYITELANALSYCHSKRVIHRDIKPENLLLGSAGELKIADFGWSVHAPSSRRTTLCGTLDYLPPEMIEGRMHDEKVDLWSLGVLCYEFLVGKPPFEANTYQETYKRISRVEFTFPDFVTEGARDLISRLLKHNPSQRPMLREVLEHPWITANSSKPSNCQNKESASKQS

MAP2K1 (human) = MAP2K1 (human) (UniProt Q02750); conditions: compound 100.0 µM; ATP 5 µM
MAP3K9 (human) = MAP3K9 (human) (UniProt P80192); conditions: compound 100.0 µM; ATP 20 µM
SRPK1 (human) = SRPK1 (human) (UniProt Q96SB4); conditions: compound 100.0 µM; ATP 50 µM
PAK6 (human) = PAK6 (human) (UniProt Q9NQU5); conditions: compound 100.0 µM; ATP 20 µM
RIPK2 (human) = RIPK2 (human) (UniProt O43353); conditions: compound 100.0 µM; ATP 20 µM
MAPK14 (human) = MAPK14 (human) (UniProt Q16539); conditions: compound 100.0 µM; ATP 50 µM
MARK1 (human) = MARK1 (human) (UniProt Q9P0L2); conditions: compound 100.0 µM; ATP 20 µM
[3] = system: RPS6KB1 (human), P23443 [T412E]; conditions: compound 100.0 µM; ATP 20 µM
MAPK9 (human) = MAPK9 (human) (UniProt P45984); conditions: compound 100.0 µM; ATP 20 µM
PTK6 (human) = PTK6 (human) (UniProt Q13882); conditions: compound 100.0 µM; ATP 20 µM
PTK6 (human), sequence (Q13882 whole entry, looked up): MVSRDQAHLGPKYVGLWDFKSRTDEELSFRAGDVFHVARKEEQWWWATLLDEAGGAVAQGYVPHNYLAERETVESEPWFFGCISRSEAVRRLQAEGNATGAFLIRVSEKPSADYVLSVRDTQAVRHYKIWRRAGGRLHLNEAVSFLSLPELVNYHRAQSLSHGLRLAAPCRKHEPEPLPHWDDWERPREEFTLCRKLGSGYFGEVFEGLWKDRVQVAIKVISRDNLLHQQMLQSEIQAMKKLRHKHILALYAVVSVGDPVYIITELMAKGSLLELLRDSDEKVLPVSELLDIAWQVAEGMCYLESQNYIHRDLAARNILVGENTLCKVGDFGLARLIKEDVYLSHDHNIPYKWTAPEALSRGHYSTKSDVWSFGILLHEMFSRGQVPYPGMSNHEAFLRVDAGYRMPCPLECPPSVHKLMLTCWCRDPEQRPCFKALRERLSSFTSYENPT

ABL1 (human) = ABL1 (human) (UniProt P00519); conditions: compound 100.0 µM; ATP 5 µM
ABL1 (human), sequence (P00519 whole entry, looked up): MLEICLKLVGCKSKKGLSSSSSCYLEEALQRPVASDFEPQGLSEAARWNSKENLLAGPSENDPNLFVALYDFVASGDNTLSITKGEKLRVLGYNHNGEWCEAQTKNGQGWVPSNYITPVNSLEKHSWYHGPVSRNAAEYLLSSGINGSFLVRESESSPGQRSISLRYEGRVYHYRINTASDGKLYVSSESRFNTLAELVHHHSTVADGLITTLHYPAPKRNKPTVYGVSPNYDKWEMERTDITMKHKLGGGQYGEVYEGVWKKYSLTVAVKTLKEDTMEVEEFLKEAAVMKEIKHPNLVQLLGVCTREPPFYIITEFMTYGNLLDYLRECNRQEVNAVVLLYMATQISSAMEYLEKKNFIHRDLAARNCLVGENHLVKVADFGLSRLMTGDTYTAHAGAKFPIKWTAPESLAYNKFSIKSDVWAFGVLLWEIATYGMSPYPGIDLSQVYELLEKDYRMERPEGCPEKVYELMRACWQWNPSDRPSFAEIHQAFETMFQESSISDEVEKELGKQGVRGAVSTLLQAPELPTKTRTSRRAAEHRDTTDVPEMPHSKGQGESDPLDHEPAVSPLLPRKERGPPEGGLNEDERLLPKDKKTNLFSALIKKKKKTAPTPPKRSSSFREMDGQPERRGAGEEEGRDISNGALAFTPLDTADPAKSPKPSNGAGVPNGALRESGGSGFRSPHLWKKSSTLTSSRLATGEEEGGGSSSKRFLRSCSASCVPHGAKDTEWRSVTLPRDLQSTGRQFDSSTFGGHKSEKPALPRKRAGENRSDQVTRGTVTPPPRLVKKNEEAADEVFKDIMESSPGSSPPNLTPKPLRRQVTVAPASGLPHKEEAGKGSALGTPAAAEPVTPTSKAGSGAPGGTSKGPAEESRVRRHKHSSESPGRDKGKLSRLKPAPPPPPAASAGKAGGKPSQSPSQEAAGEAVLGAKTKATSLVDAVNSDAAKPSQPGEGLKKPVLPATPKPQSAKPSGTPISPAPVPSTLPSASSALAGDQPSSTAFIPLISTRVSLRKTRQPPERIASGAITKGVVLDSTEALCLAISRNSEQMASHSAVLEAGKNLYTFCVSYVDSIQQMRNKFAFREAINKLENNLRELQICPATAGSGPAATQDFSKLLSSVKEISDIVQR

CSNK2A1 (human) = CSNK2A1 (human) (UniProt P68400); conditions: compound 100.0 µM; ATP 5 µM
CSNK2A1 (human), sequence (P68400 whole entry, looked up): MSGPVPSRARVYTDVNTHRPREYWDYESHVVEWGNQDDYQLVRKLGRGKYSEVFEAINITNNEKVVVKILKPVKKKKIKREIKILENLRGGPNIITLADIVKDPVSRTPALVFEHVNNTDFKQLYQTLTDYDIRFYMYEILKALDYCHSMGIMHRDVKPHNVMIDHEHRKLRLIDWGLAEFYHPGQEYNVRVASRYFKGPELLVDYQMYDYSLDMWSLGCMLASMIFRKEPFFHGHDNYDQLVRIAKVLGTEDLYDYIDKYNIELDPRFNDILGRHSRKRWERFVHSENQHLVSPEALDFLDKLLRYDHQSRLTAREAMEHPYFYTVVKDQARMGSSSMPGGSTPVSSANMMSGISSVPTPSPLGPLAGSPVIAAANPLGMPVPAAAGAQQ

FGFR1 (human) = FGFR1 (human) (UniProt P11362); conditions: compound 100.0 µM; ATP 20 µM

PLK1 (human), sequence (P53350 whole entry, looked up): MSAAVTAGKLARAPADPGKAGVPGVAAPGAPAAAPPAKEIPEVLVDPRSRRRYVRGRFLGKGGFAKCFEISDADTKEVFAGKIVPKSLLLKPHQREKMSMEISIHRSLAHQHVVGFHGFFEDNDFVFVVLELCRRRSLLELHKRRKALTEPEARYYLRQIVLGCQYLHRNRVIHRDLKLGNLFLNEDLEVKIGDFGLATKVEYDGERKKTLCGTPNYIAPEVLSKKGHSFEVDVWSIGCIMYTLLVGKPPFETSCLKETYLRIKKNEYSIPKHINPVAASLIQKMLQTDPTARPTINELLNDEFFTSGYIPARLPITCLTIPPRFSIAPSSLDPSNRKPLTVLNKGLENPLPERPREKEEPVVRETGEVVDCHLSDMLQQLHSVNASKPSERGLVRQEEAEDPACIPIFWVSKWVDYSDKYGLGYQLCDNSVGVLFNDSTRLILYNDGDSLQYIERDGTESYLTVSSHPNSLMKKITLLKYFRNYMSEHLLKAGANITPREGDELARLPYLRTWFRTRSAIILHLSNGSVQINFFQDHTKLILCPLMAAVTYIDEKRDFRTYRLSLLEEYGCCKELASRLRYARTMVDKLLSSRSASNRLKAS

Cc1cccc(C)c1-c1cn2nc(N)nc2cn1
inhibition (PLK1 (human)): 8% | inhibition (TTK (human)): 20% | inhibition (PHKG1 (human)): 41% | inhibition (MAP2K2 (human)): 28% | inhibition (MAPK3 (human)): 31% | inhibition (CHEK1 (human)): 9% | inhibition (JAK2 JH1 JH2 (human)): 16% | inhibition (IRAK4 (human)): 18% | inhibition (MAPKAPK3 (human)): 33% | inhibition [1]: 37% | inhibition (PIM1 (human)): 18% | inhibition (MAPK13 (human)): 15% | inhibition (MAPK15 (human)): 25% | inhibition (BRSK1 (human)): 14% | inhibition (CHEK2 (human)): 13% | inhibition (MARK4 (human)): 24% | inhibition (DYRK2 (human)): 21% | inhibition (AURKB (human)): 29% | inhibition (PAK7 (human)): 13% | inhibition (GCK (human)): 59% | inhibition (FLT1 (human)): 22% | inhibition [2]: 19% | inhibition (PIM3 (human)): 26% | inhibition (PDPK1 (human); ATP 20 µM): 15% | inhibition (PDPK1 (human); ATP 50 µM): 13% | inhibition (TBK1 (human)): 21% | inhibition (STK16 (human)): 6% | inhibition (AURKA (human)): 12% | inhibition (MAP2K1 (human)): 22% | inhibition (MAP3K9 (human)): 18% | inhibition (SRPK1 (human)): 31% | inhibition (PAK6 (human)): 11% | inhibition (RIPK2 (human)): 43% | inhibition (MAPK14 (human)): 35% | inhibition (MARK1 (human)): 15% | inhibition [3]: 8% | inhibition (MAPK9 (human)): 0% | inhibition (PTK6 (human)): 15% | inhibition (ABL1 (human)): 14% | inhibition (CSNK2A1 (human)): 17% | inhibition (FGFR1 (human)): 42%

CC(=O)Nc1nc2cnc(-c3c(C)cccc3C)cn2n1
inhibition (PLK1 (human)): 0% | inhibition (TTK (human)): 0% | inhibition (PHKG1 (human)): 0% | inhibition (MAP2K2 (human)): 0% | inhibition (MAPK3 (human)): 10% | inhibition (CHEK1 (human)): 0% | inhibition (JAK2 JH1 JH2 (human)): 9% | inhibition (IRAK4 (human)): 0% | inhibition (MAPKAPK3 (human)): 74% | inhibition [1]: 43% | inhibition (PIM1 (human)): 9% | inhibition (MAPK13 (human)): 19% | inhibition (MAPK15 (human)): 7% | inhibition (BRSK1 (human)): 0% | inhibition (CHEK2 (human)): 0% | inhibition (MARK4 (human)): 17% | inhibition (DYRK2 (human)): 0% | inhibition (AURKB (human)): 0% | inhibition (PAK7 (human)): 5% | inhibition (GCK (human)): 0% | inhibition (FLT1 (human)): 9% | inhibition [2]: 0% | inhibition (PIM3 (human)): 1% | inhibition (PDPK1 (human); ATP 20 µM): 0% | inhibition (PDPK1 (human); ATP 50 µM): 0% | inhibition (TBK1 (human)): 15% | inhibition (STK16 (human)): 0% | inhibition (AURKA (human)): 10% | inhibition (MAP2K1 (human)): 0% | inhibition (MAP3K9 (human)): 0% | inhibition (SRPK1 (human)): 10% | inhibition (PAK6 (human)): 0% | inhibition (RIPK2 (human)): 5% | inhibition (MAPK14 (human)): 0% | inhibition (MARK1 (human)): 0% | inhibition [3]: 0% | inhibition (MAPK9 (human)): 0% | inhibition (PTK6 (human)): 0% | inhibition (ABL1 (human)): 18% | inhibition (CSNK2A1 (human)): 0% | inhibition (FGFR1 (human)): 3%
